{"source": "paper PMC10017709", "about": "“Structural basis of selective cannabinoid CB2 receptor activation” (Nature Communications, 2023)", "key": {"CB2R-S285^7.39A": {"target": "CB2R-S285^7.39A (Homo sapiens, UniProt P34972, S285A)", "sequence (P34972 whole entry S285A)": "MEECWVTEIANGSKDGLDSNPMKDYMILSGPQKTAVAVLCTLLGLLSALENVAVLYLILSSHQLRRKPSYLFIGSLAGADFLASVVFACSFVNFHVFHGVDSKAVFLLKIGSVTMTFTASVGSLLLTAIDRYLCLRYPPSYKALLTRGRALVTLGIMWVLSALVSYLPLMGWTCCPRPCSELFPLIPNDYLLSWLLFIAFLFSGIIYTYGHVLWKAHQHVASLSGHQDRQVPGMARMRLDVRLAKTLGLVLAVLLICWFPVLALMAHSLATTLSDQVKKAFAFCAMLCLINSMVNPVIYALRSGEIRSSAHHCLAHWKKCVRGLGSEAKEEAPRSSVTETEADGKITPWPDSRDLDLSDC", "assay": "[35S]GTPγS assay, CB2R S285A mutant", "type": "biochemical", "details": "S285A mutant; at 10 µM compared to WT; read-out: Emax (%)"}, "CB2R-Quadruple^TM1,7 [1]": {"target": "T1, CB2R-Quadruple^TM1,7 (Homo sapiens, UniProt P34972, C40S/K279T/K33Q/V36I)", "T1 sequence (P34972 whole entry K33Q/V36I/C40S/K279T)": "as the sequence (P34972 whole entry S285A) above, with K33Q, V36I, C40S, K279T, A285S counted along it", "assay": "[35S]GTPγS assay, CB2R quadruple mutant", "type": "biochemical", "details": "for [35S]GTPγS binding: QuadrupleTM1,7, individual replicates", "experimental": "In short, transient HEK293T membrane homogenates (10 µg/well) were diluted in assay buffer (50 mM Tris-HCl (pH 7.4), 5 mM MgCl2, 150 mM NaCl, 1 mM EDTA, 0.05% BSA (w/v) and 1 mM DTT, freshly prepared every day) and were pretreated with 10 µg saponin and 1 µM GDP. For endocannabinoid samples, the membranes were additionally pretreated for 30 min with 50 µM PMSF before agonist addition. […] Basal receptor activity was determined in the presence of vehicle only (0.2% DMSO/acetonitrile). […] Filtration was performed, and filter-bound radioactivity was determined as described under [^3H]RO6957022 Competition Association Assays except for using ice-cold 50 mM Tris-HCl (pH 7.4), 5 mM MgCl2 buffer."}, "CB2R-Quadruple^TM1,7 [2]": {"target": "T1, CB2R-Quadruple^TM1,7", "assay": "[3H]CP55,940 displacement assay, CB2R quadruple mutant", "type": "binding", "details": "QuadrupleTM1,7, individual replicates"}, "hCB1R WT": {"target": "hCB1R WT (Homo sapiens, UniProt P21554)", "sequence (P21554 whole entry)": "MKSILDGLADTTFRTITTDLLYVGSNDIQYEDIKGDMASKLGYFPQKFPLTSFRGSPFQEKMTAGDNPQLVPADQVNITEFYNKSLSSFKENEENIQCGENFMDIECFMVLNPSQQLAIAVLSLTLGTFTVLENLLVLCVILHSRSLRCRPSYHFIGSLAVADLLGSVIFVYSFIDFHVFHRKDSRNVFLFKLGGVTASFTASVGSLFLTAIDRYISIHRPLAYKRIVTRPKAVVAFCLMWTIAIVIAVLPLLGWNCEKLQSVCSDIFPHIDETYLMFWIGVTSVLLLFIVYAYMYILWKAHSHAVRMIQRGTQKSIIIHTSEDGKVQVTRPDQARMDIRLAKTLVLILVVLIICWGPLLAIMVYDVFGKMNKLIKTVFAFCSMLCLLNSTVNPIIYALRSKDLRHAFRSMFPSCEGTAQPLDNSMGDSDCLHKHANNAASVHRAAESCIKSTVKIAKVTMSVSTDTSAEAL", "assay": "[35S]GTPγS G protein activation assay, CB1R WT", "type": "biochemical", "details": "CB1R WT; 10 µM agonist"}, "CB2R-E181^ECL2D": {"target": "CB2R-E181^ECL2D (Homo sapiens, UniProt P34972, E181D)", "sequence (P34972 whole entry E181D)": "as the sequence (P34972 whole entry S285A) above, with E181D, A285S counted along it", "assay": "[35S]GTPγS assay, CB2R E181D mutant", "type": "biochemical", "details": "E181D mutant; at 10 µM compared to WT; read-out: Emax (%)"}, "CB1R QuadrupleTM1,7": {"tested_on": "CB1R QuadrupleTM1,7", "assay": "[35S]GTPγS assay, CB1R quadruple mutant", "type": "biochemical, human", "details": "CB1R Quadruple TM1,7; 10 µM agonist"}, "CB2R-H95^2.65A": {"target": "CB2R-H95^2.65A (Homo sapiens, UniProt P34972, H95A)", "sequence (P34972 whole entry H95A)": "as the sequence (P34972 whole entry S285A) above, with H95A, A285S counted along it", "assay": "[35S]GTPγS assay, CB2R H95A mutant", "type": "biochemical"}, "CB1R I267ECL2L [3]": {"target": "T2, CB1R I267ECL2L (Homo sapiens, UniProt P21554, I267L)", "T2 sequence (P21554 whole entry I267L)": "as the sequence (P21554 whole entry) above, with I267L counted along it", "assay": "[3H]CP55,940 displacement assay, CB1R I267L mutant", "type": "binding"}, "CB1R I267ECL2L [4]": {"target": "T2, CB1R I267ECL2L", "assay": "[35S]GTPγS assay, CB1R I267L mutant", "type": "biochemical", "details": "CB1R I267L; 10 µM agonist"}, "CB2R-I110^3.29A": {"target": "CB2R-I110^3.29A (Homo sapiens, UniProt P34972, I110A)", "sequence (P34972 whole entry I110A)": "as the sequence (P34972 whole entry S285A) above, with I110A, A285S counted along it", "assay": "[35S]GTPγS assay, CB2R I110A mutant", "type": "biochemical", "details": "for [35S]GTPγS binding: I1103.29A, individual replicates"}, "CB1R-L359^6.51V": {"target": "CB1R-L359^6.51V (Homo sapiens, UniProt P21554, L359V)", "sequence (P21554 whole entry L359V)": "as the sequence (P21554 whole entry) above, with L359V counted along it", "assay": "[35S]GTPγS assay, CB1R L359V mutant", "type": "biochemical", "details": "CB1R L359V; 10 µM agonist"}, "hCB2R": {"target": "T3, hCB2R (Homo sapiens, UniProt P34972)", "T3 construct": "host or cells: CHO-K1 (CHOK1_hCB2bgal, PathHunter), membranes", "T3 sequence (P34972 whole entry)": "as the sequence (P34972 whole entry S285A) above, with A285S counted along it", "assay": "[3H]RO6957022 competition association assay", "type": "binding", "details": "individual replicates"}}, "note": "Several values for one entry are separate records, joined by “and”; a condition that tells them apart may be missing. Equal values may be shown once."}
{"smiles": "CC(C)(C)[C@@H](CO)NC(=O)c1nn(-c2c[n+]([O-])ccn2)c2c1C[C@@H]1C[C@H]21", "note": "[APD371]", "values": [{"measurement": "Emax", "setting": "CB2R-S285^7.39A", "result": "49 ± 6", "unit": "%"}, {"measurement": "Emax", "setting": "CB2R-Quadruple^TM1,7 [1]; Quadruple TM1,7 mutant, at 10 µM compared to WT, read-out: Emax (%)", "result": "35 ± 7", "unit": "%"}, {"measurement": "[35S]GTPγS binding", "setting": "CB2R-Quadruple^TM1,7 [1]; log [ligand] (M) -5", "result": "35.07 percentage of WT and 47.26 percentage of WT and 22.67 percentage of WT"}, {"measurement": "[35S]GTPγS binding", "setting": "CB2R-Quadruple^TM1,7 [1]; log [ligand] (M) -6", "result": "15.07 percentage of WT and 38.79 percentage of WT and 23.35 percentage of WT"}, {"measurement": "[35S]GTPγS binding", "setting": "CB2R-Quadruple^TM1,7 [1]; log [ligand] (M) -7", "result": "-3.98 percentage of WT and 20.94 percentage of WT and 22.86 percentage of WT"}, {"measurement": "[35S]GTPγS binding", "setting": "CB2R-Quadruple^TM1,7 [1]; log [ligand] (M) -8", "result": "22.19 percentage of WT and 25.68 percentage of WT and 22.32 percentage of WT"}, {"measurement": "[35S]GTPγS binding", "setting": "CB2R-Quadruple^TM1,7 [1]; log [ligand] (M) -9", "result": "-7.96 percentage of WT and -0.64 percentage of WT and 0.99 percentage of WT"}, {"measurement": "[35S]GTPγS binding", "setting": "CB2R-Quadruple^TM1,7 [1]; log [ligand] (M) -10", "result": "-4.29 percentage of WT and 0.80 percentage of WT and 9.16 percentage of WT"}, {"measurement": "percentage specific [3H]CP55,940 binding", "setting": "CB2R-Quadruple^TM1,7 [2]; log [ligand] (M) -5", "result": "-3.75% and 13.92% and 33.90%"}, {"measurement": "percentage specific [3H]CP55,940 binding", "setting": "CB2R-Quadruple^TM1,7 [2]; log [ligand] (M) -6", "result": "31.56% and 68.45% and 21.77%"}, {"measurement": "percentage specific [3H]CP55,940 binding", "setting": "CB2R-Quadruple^TM1,7 [2]; log [ligand] (M) -7", "result": "107.34% and 102.91% and 64.85%"}, {"measurement": "percentage specific [3H]CP55,940 binding", "setting": "CB2R-Quadruple^TM1,7 [2]; log [ligand] (M) -8", "result": "162.50% and 142.72% and 87.25%"}, {"measurement": "percentage specific [3H]CP55,940 binding", "setting": "CB2R-Quadruple^TM1,7 [2]; log [ligand] (M) -9", "result": "116.72% and 143.53% and 100.93%"}, {"measurement": "percentage specific [3H]CP55,940 binding", "setting": "CB2R-Quadruple^TM1,7 [2]; log [ligand] (M) -10", "result": "74.84% and 102.27% and 99.53%"}, {"measurement": "Agonist-mediated activation", "setting": "hCB1R WT", "result": "1.0 ± 0.0", "unit": "fold over its basal"}, {"measurement": "Emax", "setting": "CB2R-E181^ECL2D", "result": "39 ± 6", "unit": "%"}, {"measurement": "Agonist-mediated activation", "setting": "CB1R QuadrupleTM1,7", "result": "1.1 ± 0.0", "unit": "fold over its basal"}, {"measurement": "drop in potency compared to WT", "setting": "CB2R-H95^2.65A; H95A mutant vs WT, [35S]GTPγS", "result": 158, "unit": "fold"}, {"measurement": "Emax", "setting": "CB2R-H95^2.65A; H95A mutant, at 10 µM compared to WT, read-out: Emax (%)", "result": "50 ± 1", "unit": "%"}, {"measurement": "percentage specific [3H]CP55,940 binding", "setting": "CB1R I267ECL2L [3]; CB1R I267ECL2L, 10 µM ligand, replicates 1-3", "result": "153.09 percentage and 95.47 percentage and 123.57 percentage"}, {"measurement": "Displacement (%) of [3H]CP55,940", "setting": "CB1R I267ECL2L [3]; CB1R I267L, 10 µM compound", "result": "-24 ± 17", "unit": "%"}, {"measurement": "Agonist-mediated activation", "setting": "CB1R I267ECL2L [4]", "result": "0.9 ± 0.0", "unit": "fold over its basal"}, {"measurement": "Emax", "setting": "CB2R-I110^3.29A; I110A mutant, at 10 µM compared to WT, read-out: Emax (%)", "result": "28 ± 9", "unit": "%"}, {"measurement": "[35S]GTPγS binding", "setting": "CB2R-I110^3.29A; log [ligand] (M) -5", "result": "8.02 percentage of WT and 49.60 percentage of WT and 23.20 percentage of WT and 29.78 percentage of WT"}, {"measurement": "[35S]GTPγS binding", "setting": "CB2R-I110^3.29A; log [ligand] (M) -6", "result": "-6.90 percentage of WT and 31.60 percentage of WT and 8.00 percentage of WT and 14.76 percentage of WT"}, {"measurement": "[35S]GTPγS binding", "setting": "CB2R-I110^3.29A; log [ligand] (M) -7", "result": "-11.72 percentage of WT and 23.80 percentage of WT and 1.10 percentage of WT and 21.50 percentage of WT"}, {"measurement": "[35S]GTPγS binding", "setting": "CB2R-I110^3.29A; log [ligand] (M) -8", "result": "-18.83 percentage of WT and 1.40 percentage of WT and -5.80 percentage of WT and 9.14 percentage of WT"}, {"measurement": "[35S]GTPγS binding", "setting": "CB2R-I110^3.29A; log [ligand] (M) -9", "result": "-17.87 percentage of WT and 6.80 percentage of WT and -8.60 percentage of WT and -1.19 percentage of WT"}, {"measurement": "[35S]GTPγS binding", "setting": "CB2R-I110^3.29A; log [ligand] (M) -10", "result": "-16.57 percentage of WT and -10.00 percentage of WT and -2.40 percentage of WT and -10.68 percentage of WT"}, {"measurement": "Agonist-mediated activation", "setting": "CB1R-L359^6.51V", "result": "1.1 ± 0.1", "unit": "fold over its basal"}, {"measurement": "percentage specific [3H]RO6957022 binding (competition association)", "setting": "hCB2R; Time 1 min", "result": "-7.10% and 4.75% and 12.65%"}, {"measurement": "percentage specific [3H]RO6957022 binding (competition association)", "setting": "hCB2R; Time 3 min", "result": "13.92% and 19.07% and 26.36%"}, {"measurement": "percentage specific [3H]RO6957022 binding (competition association)", "setting": "hCB2R; Time 5 min", "result": "13.96% and 13.94% and 24.44%"}, {"measurement": "percentage specific [3H]RO6957022 binding (competition association)", "setting": "hCB2R; Time 7 min", "result": "24.14% and 47.87% and 28.29%"}]}
